Measurements as given in PubChem BioAssay AID504426 (Johns Hopkins Ion Channel Center, 2011).
The source made the active and inactive calls.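 How the source made its calls: active means channel current reduced at one or more tested doses, with a fitted dose-response curve; inactive means no curve fitted, or no current reduction at any dose.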

Biological target: Voltage-dependent T-type calcium channel subunit alpha-1H (Homo sapiens) (UniProt O95180)
Experiment: Cav3.2 T-type calcium channel inhibitors, dose response, mechanism study, automated patch clamp, HEK293 cells (AID 504426)
Conditions: Cav3.2-HEK293, automated patch clamp peak current; for current change, negative = inhibition: at 30 µM (top of the series)

Voltage-dependent T-type calcium channel subunit alpha-1H (Homo sapiens), sequence (O95180 whole entry, looked up): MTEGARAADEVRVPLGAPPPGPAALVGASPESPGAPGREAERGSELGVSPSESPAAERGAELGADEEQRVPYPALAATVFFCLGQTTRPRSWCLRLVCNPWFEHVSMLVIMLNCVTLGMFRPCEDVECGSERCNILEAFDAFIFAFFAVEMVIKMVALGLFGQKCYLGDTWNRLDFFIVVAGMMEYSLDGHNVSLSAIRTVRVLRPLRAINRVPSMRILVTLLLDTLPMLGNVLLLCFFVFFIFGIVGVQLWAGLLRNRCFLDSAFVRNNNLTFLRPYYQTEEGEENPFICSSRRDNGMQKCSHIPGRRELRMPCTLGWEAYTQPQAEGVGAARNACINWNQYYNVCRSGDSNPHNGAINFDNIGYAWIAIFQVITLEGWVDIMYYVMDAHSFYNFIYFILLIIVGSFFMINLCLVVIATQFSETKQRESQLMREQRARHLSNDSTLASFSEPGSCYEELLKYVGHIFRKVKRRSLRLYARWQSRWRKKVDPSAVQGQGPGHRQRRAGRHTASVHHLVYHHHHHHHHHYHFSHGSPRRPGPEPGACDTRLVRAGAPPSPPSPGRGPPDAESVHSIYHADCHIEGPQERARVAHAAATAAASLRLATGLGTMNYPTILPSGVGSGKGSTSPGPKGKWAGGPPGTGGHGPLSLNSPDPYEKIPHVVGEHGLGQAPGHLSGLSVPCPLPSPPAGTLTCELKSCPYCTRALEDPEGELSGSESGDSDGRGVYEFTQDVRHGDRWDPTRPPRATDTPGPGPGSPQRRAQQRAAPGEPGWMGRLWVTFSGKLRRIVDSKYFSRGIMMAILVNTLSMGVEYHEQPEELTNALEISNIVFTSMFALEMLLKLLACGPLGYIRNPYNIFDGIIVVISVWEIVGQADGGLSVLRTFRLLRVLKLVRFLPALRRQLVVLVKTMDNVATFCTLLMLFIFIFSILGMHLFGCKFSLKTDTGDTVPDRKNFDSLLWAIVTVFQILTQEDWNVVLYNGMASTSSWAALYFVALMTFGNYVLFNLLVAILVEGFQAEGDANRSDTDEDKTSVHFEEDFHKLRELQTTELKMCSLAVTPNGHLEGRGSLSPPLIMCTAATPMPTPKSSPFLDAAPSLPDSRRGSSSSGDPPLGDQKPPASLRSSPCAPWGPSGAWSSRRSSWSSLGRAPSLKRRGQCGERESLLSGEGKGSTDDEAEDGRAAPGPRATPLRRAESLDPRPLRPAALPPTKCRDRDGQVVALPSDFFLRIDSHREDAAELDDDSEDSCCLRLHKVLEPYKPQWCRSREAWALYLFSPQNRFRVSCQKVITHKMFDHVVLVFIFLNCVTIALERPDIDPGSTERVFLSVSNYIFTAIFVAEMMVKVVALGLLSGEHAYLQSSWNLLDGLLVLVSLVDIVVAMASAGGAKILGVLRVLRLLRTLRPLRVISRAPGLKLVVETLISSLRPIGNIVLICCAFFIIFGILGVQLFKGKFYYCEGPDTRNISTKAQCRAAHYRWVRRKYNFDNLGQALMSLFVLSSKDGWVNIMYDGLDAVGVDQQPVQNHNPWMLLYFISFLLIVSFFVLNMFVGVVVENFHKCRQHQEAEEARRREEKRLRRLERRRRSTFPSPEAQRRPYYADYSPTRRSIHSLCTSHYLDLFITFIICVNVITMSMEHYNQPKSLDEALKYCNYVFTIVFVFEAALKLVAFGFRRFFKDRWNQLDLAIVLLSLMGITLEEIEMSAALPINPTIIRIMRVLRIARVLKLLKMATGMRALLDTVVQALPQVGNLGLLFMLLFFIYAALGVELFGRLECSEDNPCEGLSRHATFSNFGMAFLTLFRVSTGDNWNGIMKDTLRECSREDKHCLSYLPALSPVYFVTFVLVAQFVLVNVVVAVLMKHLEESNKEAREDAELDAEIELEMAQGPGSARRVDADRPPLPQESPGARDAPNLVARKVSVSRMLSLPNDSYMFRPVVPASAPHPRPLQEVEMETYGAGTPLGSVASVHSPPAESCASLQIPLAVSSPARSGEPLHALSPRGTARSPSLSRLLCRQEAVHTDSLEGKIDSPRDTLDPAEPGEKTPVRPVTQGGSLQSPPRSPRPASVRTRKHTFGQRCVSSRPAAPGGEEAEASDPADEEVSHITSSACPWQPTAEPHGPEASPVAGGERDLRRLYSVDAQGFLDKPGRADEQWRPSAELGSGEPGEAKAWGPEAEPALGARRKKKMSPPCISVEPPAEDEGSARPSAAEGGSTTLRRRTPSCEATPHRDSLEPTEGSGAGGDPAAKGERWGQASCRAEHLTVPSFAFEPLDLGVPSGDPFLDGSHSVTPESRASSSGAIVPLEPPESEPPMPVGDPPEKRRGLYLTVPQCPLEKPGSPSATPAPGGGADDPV

Row | IC50 [µM] | SMILES | current change, negative = inhibition
1 | 0.31 | CC(C)(C)CCN1C[C@@H]2C(CNC(=O)c3cc(Cl)cc(Cl)c3)[C@@H]2C1 (some centres undefined) | 
2 |  | Cc1ccc(-c2nnc(NC(=O)COc3ccc(F)cc3Cl)o2)cc1C | inactive
3 | 13.5 | O=C(COc1ccc(F)cc1Cl)Nc1nnc(-c2ccc(F)c(F)c2)o1 | 
4 |  | CC(C)(C)Cc1nnc(NC(=O)COc2ccc(Cl)cc2Cl)o1 | inactive
